Results published in patent publication US20030199671A1, “Binding molecules for Fc-region polypeptides” (priority 2001, published 2003).
Values joined by “and” are separate entries in the source; they are usually repeats but may differ in a detail not shown here. Identical values can stand only once. Like-named read-outs stand apart in the source and are kept apart here.

Assays:
human plasma IgG3 = target: T1, human plasma IgG3 (Homo sapiens, UniProt P01860); assay: Fluorescence anisotropy binding, Oregon Green labeled peptide
T1 construct: the individual human plasma IgG isoforms: IgG1, IgG2, IgG3, or IgG4; purchased Calbiochem; host or cells: human plasma
Description: (§1) Peptides were synthesized by BACHEM and then Oregon Green labeled and HPLC purified. Binding studies were performed using human plasma IgG isoforms: IgG1, IgG2, IgG3, and IgG4, obtained from Calbiochem.
(§2) Binding studies were carried out at either pH 4.0, 7.5, or 9.5, with or without salt in the following buffers:
(§3) 2) 10 mM Sodium Citrate, 500 mM Sodium Chloride, 0.01% Tween 20, pH 4.0;
(§4) 4) […], 500 mM Sodium Chloride, 0.01% Tween 20, pH 7.5;
(§5) 5) 10 mM Sodium Bicarbonate, 0.01% Tween 20, pH 9.5;
(§6) 6) 10 mM Sodium Bicarbonate, 500 mM Sodium Chloride, 0.01% Tween 20, pH 9.5; or […]

human plasma IgG1 = target: T2, human plasma IgG1 (Homo sapiens, UniProt P01857); assay: as above
T2 construct: the individual human plasma IgG isoforms: IgG1, IgG2, IgG3, or IgG4; purchased Calbiochem; host or cells: human plasma
Description: as §1, §2, §3, §4, §5, §6

human plasma IgG2 = target: T3, human plasma IgG2 (Homo sapiens, UniProt P01859); assay: as above
T3 construct: the individual human plasma IgG isoforms: IgG1, IgG2, IgG3, or IgG4; purchased Calbiochem; host or cells: human plasma
Description: as §1, §2, §3, §4, §5, §6

mouse IgG = assay type: binding; conditions: Table 11; unfractionated IgG
Outline: (§7)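 Static binding, peptide resin + IgG, 1-1.5 h RT with shaking, PBST pH 7.2 or TBST pH 7.5. Flow-through read at A280 vs buffer blank; % bound = control minus unbound. Elution at pH 8.5 bicarbonate and/or pH 4.0 citrate, 30-60 min.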

goat IgG = assay type: binding; conditions: Table 11; unfractionated IgG
Outline: as §7

human IgG1 = target: T4, human IgG1 (Homo sapiens, UniProt P01857); assay type: binding; conditions: Table 9; immobilized peptide, 5.0 mg/ml resin load
T4 construct: all human subtypes derived from myeloma patients; purchased Calbiochem 400120; host or cells: myeloma patients
Outline: (§8)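 Steps: dilute IgG in PBST or TBST; incubate with immobilized peptide 1-1.5 h, RT; collect unbound by centrifugation; measure A280; wash three times; elute with 0.1 M sodium bicarbonate pH 8.5 and/or 0.1 M sodium citrate pH 4.0 for 30-60 min and quantitate.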

bovine IgG = assay type: binding; conditions: Table 11; unfractionated IgG
Outline: as §7

human IgG2 = target: T5, human IgG2 (Homo sapiens, UniProt P01859); assay type: binding; conditions: Table 9; immobilized peptide, 5.0 mg/ml resin load
T5 construct: all human subtypes derived from myeloma patients; purchased Calbiochem 400122; host or cells: myeloma patients
Outline: (§9)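 Read-out is A280 of unbound IgG (1.4 mg/ml extinction coefficient), with percent bound derived against non-filtered or negative controls. Targets were incubated with immobilized peptides in PBST or TBST for 1-1.5 h at room temperature. Hydrolyzed Sepharose and immobilized Protein A serve as negative and positive controls.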

human IgG = assay type: binding; conditions: Table 11; unfractionated IgG
Outline: as §7

IgG3 = IgG3 (Homo sapiens, UniProt P01860); assay type: binding; set-up: all human subtypes derived from myeloma patients; purchased Calbiochem 400124; host or cells: myeloma patients; conditions: Table 9; immobilized peptide, 5.0 mg/ml resin load
Outline: as §8

IgG4 = IgG4 (Homo sapiens, UniProt P01861); assay type: binding; set-up: all human subtypes derived from myeloma patients; purchased Calbiochem 400126; host or cells: myeloma patients; conditions: Table 9; immobilized peptide, 5.0 mg/ml resin load
Outline: as §9

T3 sequence (P01859 1-326 isoform P01859-1): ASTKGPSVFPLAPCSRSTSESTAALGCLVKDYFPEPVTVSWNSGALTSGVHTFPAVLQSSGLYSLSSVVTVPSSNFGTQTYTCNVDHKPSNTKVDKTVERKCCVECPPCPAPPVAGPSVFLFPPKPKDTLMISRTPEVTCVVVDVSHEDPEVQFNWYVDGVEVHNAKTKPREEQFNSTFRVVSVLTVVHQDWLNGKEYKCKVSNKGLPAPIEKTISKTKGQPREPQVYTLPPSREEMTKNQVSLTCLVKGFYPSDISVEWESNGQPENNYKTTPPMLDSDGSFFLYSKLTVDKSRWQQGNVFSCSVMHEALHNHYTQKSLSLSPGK
T2 sequence (P01857 1-330 isoform P01857-1): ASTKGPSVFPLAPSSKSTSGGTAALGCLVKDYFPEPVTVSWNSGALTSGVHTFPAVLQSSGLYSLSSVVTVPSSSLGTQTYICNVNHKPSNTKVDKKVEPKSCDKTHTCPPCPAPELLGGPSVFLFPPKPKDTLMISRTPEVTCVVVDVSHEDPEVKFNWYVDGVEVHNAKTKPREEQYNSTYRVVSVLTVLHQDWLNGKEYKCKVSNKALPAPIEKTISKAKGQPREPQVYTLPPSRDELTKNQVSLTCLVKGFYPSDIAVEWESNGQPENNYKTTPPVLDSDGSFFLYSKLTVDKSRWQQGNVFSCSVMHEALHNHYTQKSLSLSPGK
T1 sequence (P01860 1-377 isoform P01860-1): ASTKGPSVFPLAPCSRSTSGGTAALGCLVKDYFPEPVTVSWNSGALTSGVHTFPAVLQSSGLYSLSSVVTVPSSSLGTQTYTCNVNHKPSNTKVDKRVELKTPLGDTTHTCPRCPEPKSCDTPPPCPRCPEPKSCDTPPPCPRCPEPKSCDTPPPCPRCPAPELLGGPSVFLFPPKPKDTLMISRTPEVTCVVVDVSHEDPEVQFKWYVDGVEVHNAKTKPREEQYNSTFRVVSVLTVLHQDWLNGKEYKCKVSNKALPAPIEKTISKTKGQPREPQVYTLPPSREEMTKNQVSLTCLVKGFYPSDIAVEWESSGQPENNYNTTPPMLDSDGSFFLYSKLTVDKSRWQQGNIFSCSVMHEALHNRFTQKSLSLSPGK
T5 sequence (P01859 1-326 isoform P01859-1): as the sequence (P01859 1-326 isoform P01859-1) above
T4 sequence (P01857 1-330 isoform P01857-1): as the sequence (P01857 1-330 isoform P01857-1) above
IgG3, sequence (P01860 1-377 isoform P01860-1): as the sequence (P01860 1-377 isoform P01860-1) above
IgG4, sequence (P01861 1-327 isoform P01861-1): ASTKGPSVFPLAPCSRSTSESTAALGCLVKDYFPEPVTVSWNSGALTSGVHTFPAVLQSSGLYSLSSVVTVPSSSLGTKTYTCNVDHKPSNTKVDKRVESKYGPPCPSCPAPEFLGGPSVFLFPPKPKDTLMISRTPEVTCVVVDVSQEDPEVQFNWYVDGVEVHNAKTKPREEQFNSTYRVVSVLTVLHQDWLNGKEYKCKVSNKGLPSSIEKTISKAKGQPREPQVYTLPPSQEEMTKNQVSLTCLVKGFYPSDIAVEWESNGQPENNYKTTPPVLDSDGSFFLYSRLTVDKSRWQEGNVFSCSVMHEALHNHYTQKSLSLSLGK

Structure (SMILES): CC(=O)N[C@@H](C)C(=O)NCC(=O)N[C@@H](C)C(=O)N[C@@H](C)C(=O)N[C@H](C(=O)N[C@H]1CSSC[C@@H](C(=O)N[C@H](C(=O)N[C@@H](CC(=O)O)C(=O)N[C@@H](CO)C(=O)N2CCC[C@H]2C(=O)NCC(=O)N2CCC[C@H]2C(=O)N[C@@H](CCC(=O)O)C(=O)NCC(=O)NCC(=O)NCC(=O)N[C@@H](CCCCN)C(N)=O)[C@@H](C)O)NC(=O)[C@H](Cc2ccccc2)NC(=O)[C@H](Cc2c[nH]c3ccccc23)NC(=O)[C@H](CCC(N)=O)NC(=O)[C@H](Cc2ccc(O)cc2)NC(=O)[C@H](Cc2ccc(O)cc2)NC(=O)[C@H](Cc2c[nH]c3ccccc23)NC(=O)[C@H](Cc2ccc(O)cc2)NC(=O)[C@H](CO)NC(=O)[C@H]([C@@H](C)O)NC(=O)[C@H](CO)NC1=O)[C@@H](C)O [DX398]
- Kd (human plasma IgG3; 10 nM Tris-HCl, 500 mM Sodium Chloride, pH 7.5, read-out: KD (μM) IgG3 pH 7.5 + salt): 0.3 ± 0.03 µM
- Kd (human plasma IgG3; 10 mM Sodium Bicarbonate, 500 mM Sodium Chloride, pH 9.5, read-out: KD (μM) IgG3 pH 9.5 + salt): 0.3 ± 0.1 µM
- Kd (human plasma IgG3; 10 mM Sodium Bicarbonate, pH 9.5, read-out: KD (μM) IgG3 pH 9.5 − salt): > 10 µM
- Kd (human plasma IgG3; 10 mM Sodium Citrate, 500 mM Sodium Chloride, pH 4.0, read-out: KD (μM) IgG3 pH 4.0 + salt): 0.04 to 0.3 µM
- Kd (human plasma IgG3; 10 mM Sodium Citrate, pH 4.0, read-out: KD (μM) IgG3 pH 4.0 − salt): ~0.02 µM and 0.02 µM
- Kd (human plasma IgG3; 10 mM Tris-HCl, pH 7.5, read-out: KD (μM) IgG3 pH 7.5 − salt): > 10 µM
- Kd (human plasma IgG3; TBS, 0.01% Tween 20, pH 7.5, read-out: KD (μM) IgG3 TBS): > 10 µM
- Kd (human plasma IgG1; 10 nM Tris-HCl, 500 mM Sodium Chloride, pH 7.5, read-out: KD (μM) IgG1 pH 7.5 + salt): > 10 µM
- Kd (human plasma IgG1; 10 mM Sodium Bicarbonate, 500 mM Sodium Chloride, pH 9.5, read-out: KD (μM) IgG1 pH 9.5 + salt): > 10 µM
- Kd (human plasma IgG1; 10 mM Sodium Bicarbonate, pH 9.5, read-out: KD (μM) IgG1 pH 9.5 − salt): > 10 µM
- Kd (human plasma IgG1; 10 mM Sodium Citrate, 500 mM Sodium Chloride, pH 4.0, read-out: KD (μM) IgG1 pH 4.0 + salt): > 10 µM
- Kd (human plasma IgG1; 10 mM Sodium Citrate, pH 4.0, read-out: KD (μM) IgG1 pH 4.0 − salt): ~2 µM
- Kd (human plasma IgG1; TBS, 0.01% Tween 20, pH 7.5, read-out: KD (μM) IgG1 TBS): > 10 µM
- Kd (human plasma IgG2; 10 nM Tris-HCl, 500 mM Sodium Chloride, pH 7.5, read-out: KD (μM) IgG2 pH 7.5 + salt): > 10 µM
- Kd (human plasma IgG2; 10 mM Sodium Bicarbonate, 500 mM Sodium Chloride, pH 9.5, read-out: KD (μM) IgG2 pH 9.5 + salt): > 10 µM
- Kd (human plasma IgG2; 10 mM Sodium Bicarbonate, pH 9.5, read-out: KD (μM) IgG2 pH 9.5 − salt): > 10 µM
- Kd (human plasma IgG2; 10 mM Sodium Citrate, 500 mM Sodium Chloride, pH 4.0, read-out: KD (μM) IgG2 pH 4.0 + salt): > 10 µM
- Kd (human plasma IgG2; 10 mM Sodium Citrate, pH 4.0, read-out: KD (μM) IgG2 pH 4.0 − salt): ~2 µM
- Kd (human plasma IgG2; 10 mM Tris-HCl, pH 7.5, read-out: KD (μM) IgG2 pH 7.5 − salt): > 10 µM
- Kd (human plasma IgG2; TBS, 0.01% Tween 20, pH 7.5, read-out: KD (μM) IgG2 TBS): > 10 µM
- % IgG Capture - Batch Binding, Mouse IgG (mouse IgG): 4%
- % IgG Capture - Batch Binding, Goat IgG (goat IgG): 0%
- % IgG Capture - Batch Binding, Human IgG1 (human IgG1): 6%
- % IgG Capture - Batch Binding, Bovine IgG (bovine IgG): 2%
- % IgG Capture - Batch Binding, Human IgG2 (human IgG2): 0%
- % IgG Capture - Batch Binding, Human IgG (human IgG): 9%
- % IgG Capture - Batch Binding, Human IgG3 (IgG3): 79%
- % IgG Capture - Batch Binding, Human IgG4 (IgG4): 2%
